The results in this text go back to patent US8207169B2, “Substituted [1,2,4]triazolo[4′,3′:1,6]pyrido[2,3-b]pyrazines of the formula D” (MSD K.K., priority 2008, dated 2012).

One assay deals with T1, Akt1 kinase (Homo sapiens, UniProt P31749).
T1 construct: a middle T tag was added to the 5′ end of the full length Akt1 gene; biotin tag (from pS2neo vector); made in house; host or cells: Drosophila S2 cells
Put plainly: Akt kinase assay (HTRF, GSK-derived biotinylated peptide substrate). It counts as biochemical. The settings on record: activated Akt1 kinase. The procedure: (§1) Activated Akt isoforms and pleckstrin homology domain deletion constructs were assayed utilizing a GSK-derived biotinylated peptide substrate. The extent of peptide phosphorylation was determined by Homogeneous Time Resolved Fluorescence (HTRF) using a lanthanide chelate(Lance)-coupled monoclonal antibody specific for the phosphopeptide in combination with a streptavidin-linked allophycocyanin (SA-APC) fluorophore which will bind to the biotin moiety on the peptide. When the Lance and APC are in proximity (i.e. bound to the same phosphopeptide molecule), a non-radiative energy transfer takes place from the Lance to the APC, followed by emission of light from APC at 665 nm.
(§2) Materials Required for the Assay:
(§3) A. Activated Akt isozyme or pleckstrin homology domain deleted construct
(§4) B. Akt peptide substrate: GSK3α (S21) Peptide #3928 biotin-GGRARTSSFAEPG (SEQ. ID. NO.:15), Macromolecular Resources.
(§5) C. Lance labeled anti-phospho GSK3α monoclonal antibody (Cell Signaling Technology, clone #27).
(§6) D. SA-APC (Prozyme catalog no. MS lot #896067).
(§7) E. Microfluor®B U Bottom Microtiter Plates (Dynex Technologies, Catalog no. 7205).
(§8) F. Discovery® HTRF Microplate Analyzer, Packard Instrument Company.
(§9) G. 100× Protease Inhibitor Cocktail (PIC): 1 mg/mL benzamidine, 0.5 mg/mL pepstatin, 0.5 mg/mL leupeptin, 0.5 mg/mL aprotinin.
(§10) H. 10× Assay Buffer: 500 mM HEPES, pH 7.5, 1% PEG, […], 1 mM EGTA, 1% BSA, 20 mM ∂-Glycerol phosphate.
(§11) I. Quench Buffer: 50 mM HEPES pH 7.3, 16.6 mM EDTA, 0.1% BSA, 0.1% Triton X-100, 0.17 nM Lance labeled monoclonal antibody clone #27, 0.0067 mg/mL SA-APC
(§12) J. ATP/MgCl2 working solution: 1× Assay buffer, 1 mM DTT, 1×PIC, 125 mM KCl, 5% Glycerol, 25 mM MgCl2, 375 μM ATP
(§13) K. Enzyme working solution: 1× Assay buffer, 1 mM DTT, 1×PIC, 5% Glycerol, active Akt. The final enzyme concentrations were selected so that the assay was in a linear response range.
(§14) L. Peptide working solution: 1× Assay buffer, 1 mM DTT, 1×PIC, 5% Glycerol, 2 μM GSK3 biotinylated peptide #3928
(§15) The reaction is assembled by adding […] of the ATP/MgCl2 working solution to the appropriate wells of a 96-well microtiter plate. Inhibitor or vehicle (1.0 μL) is added followed by 10 μL of peptide working solution. The reaction is started by adding 13 μl, of the enzyme working solution and mixing. The reaction is allowed to proceed for 50 min and then stopped by the addition of 60 μL, HTRF quench buffer. The stopped reactions were incubated at room temperature for at least 30 min and then read on the Discovery instrument.
For orientation: In TR-FRET formats the signal depends on donor and acceptor labels being close together.

The next assay has as its target T2, Akt2 kinase (Homo sapiens, UniProt P31751).
T2 construct: a middle T tag was added to the 5′ end of the full length Akt2 using the PCR primer; biotin tag (from pS2neo vector); made in house; host or cells: Drosophila S2 cells
Described as above. The settings on record: activated Akt2 kinase. It counts as biochemical. The procedure: as §1, §2, §3, §4, §5, §6, §7, §8, §9, §10, §11, §12, §13, §14, §15

Molecules are shown by their SMILES.

T2 sequence (P31751 whole entry): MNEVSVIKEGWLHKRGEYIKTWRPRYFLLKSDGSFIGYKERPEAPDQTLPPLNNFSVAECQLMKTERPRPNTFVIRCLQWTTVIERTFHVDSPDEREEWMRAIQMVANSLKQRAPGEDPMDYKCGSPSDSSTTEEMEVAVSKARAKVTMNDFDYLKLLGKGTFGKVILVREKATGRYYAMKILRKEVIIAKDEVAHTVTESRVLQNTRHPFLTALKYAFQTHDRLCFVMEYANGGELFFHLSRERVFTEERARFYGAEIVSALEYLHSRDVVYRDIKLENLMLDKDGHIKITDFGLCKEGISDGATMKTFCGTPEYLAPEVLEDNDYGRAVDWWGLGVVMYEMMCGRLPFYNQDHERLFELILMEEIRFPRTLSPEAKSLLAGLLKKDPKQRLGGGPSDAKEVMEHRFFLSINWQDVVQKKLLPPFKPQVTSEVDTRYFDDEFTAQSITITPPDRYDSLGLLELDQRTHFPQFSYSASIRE
T1 sequence (P31749 whole entry): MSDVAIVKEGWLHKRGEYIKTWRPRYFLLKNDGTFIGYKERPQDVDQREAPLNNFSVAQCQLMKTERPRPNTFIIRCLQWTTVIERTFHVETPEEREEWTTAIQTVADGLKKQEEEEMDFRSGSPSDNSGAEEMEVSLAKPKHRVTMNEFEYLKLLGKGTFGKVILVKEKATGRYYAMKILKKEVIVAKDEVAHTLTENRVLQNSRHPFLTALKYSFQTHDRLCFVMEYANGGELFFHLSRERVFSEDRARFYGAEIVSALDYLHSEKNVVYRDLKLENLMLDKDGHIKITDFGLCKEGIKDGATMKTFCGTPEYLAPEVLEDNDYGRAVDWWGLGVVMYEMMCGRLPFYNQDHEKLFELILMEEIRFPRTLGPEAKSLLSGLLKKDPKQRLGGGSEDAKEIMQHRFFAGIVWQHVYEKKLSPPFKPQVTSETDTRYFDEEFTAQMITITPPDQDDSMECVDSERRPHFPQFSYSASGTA

For the compound `NC1(c2ccc(-c3nc4ccn5c(-c6ncccn6)nnc5c4cc3-c3ccccc3)cc2)CC(F)(F)C1` [EXAMPLE 2-10, 3,3-difluoro-1-{4-[9-phenyl-3-(2-pyrimidinyl)[1,2,4]triazolo[3,4-f]-1,6-naphthyridin-8-yl]phenyl}cyclobutanamine], the results for the IC50 on Akt1 kinase and at Akt2 kinase were 6 nM and 44.4 nM, respectively.

On to `N[C@]1(c2ccc(-c3nc4ccn5c(-c6ncccn6)nnc5c4cc3-c3ccccc3)cc2)C[C@](O)(C2CC2)C1` [EXAMPLE 2-14, trans-3-amino-1-cyclopropyl-3-{-4-[9-phenyl-3-(2-pyrimidinyl)-[1,2,4]triazolo[3,4-f]-1,6-naphthyridin-8-yl]phenyl}cyclobutanol], for which the IC50 (usually the midpoint of a concentration-inhibition curve) at Akt1 kinase was determined as 0.3 nM; on Akt2 kinase, 4 nM.

For the compound `C[C@]1(O)C[C@@](N)(c2ccc(-c3nc4ccc5nnc(-c6cccnc6)n5c4nc3-c3ccccc3)cc2)C1` [EXAMPLE 3-7, trans-3-amino-1-methyl-3-{4-[2-phenyl-9-(3-pyridinyl)[1,2,4]triazolo-[4′,3′:1,6]pyrido[2,3-b]pyrazin-3-yl]phenyl}cyclobutanol], the half-inhibitory concentration (IC50) at Akt1 kinase amounted to 0.4 nM; at Akt2 kinase, 4 nM.

Turning to `N[C@]1(c2ccc(-c3nc4ccc5nnc(-c6ccc(O)cc6)n5c4nc3-c3ccccc3)cc2)C[C@](O)(C2CC2)C1` [EXAMPLE 3-14, 4-{3-[4-(trans-1-amino-3-cyclopropyl-3-hydroxycyclobutyl)phenyl]-2-phenyl[1,2,4]triazolo[4′,3′:1,6]pyrido[2,3-b]pyrazin-9-yl]phenol], the figures for the IC50 at Akt1 kinase and on Akt2 kinase were 0.3 nM and 11 nM, respectively.

As to `NC1(c2ccc(-c3nc4ccc5nnc(CCC(F)(F)F)n5c4nc3-c3ccccc3)cc2)CC(O)(C2CC2)C1` (stereo not drawn) [EXAMPLE 3-20, trans-3-amino-1-cyclopropyl-3-{4-[2-phenyl-9-(3,3,3-trifluoropropyl)[1,2,4]triazolo[4′,3′:1,6]pyrido[2,3-b]pyrazin-3-yl]phenyl}cyclobutanol], the IC50 on Akt1 kinase amounted to 0.5 nM; at Akt2 kinase it was 6.3 nM.

For `Cc1nc(-c2nnc3c4cc(-c5ccccc5)c(-c5ccc(C6(N)CC(F)(F)C6)cc5)nc4ccn23)n[nH]1` [EXAMPLE 5-16, 3,3-difluoro-1-{4-[3-(5-methyl-1H-1,2,4-triazol-3-yl)-9-phenyl[1,2,4]triazolo[3,4-f]-1,6-naphthyridin-8-yl]phenyl}cyclobutanamine], the results for the IC50 at Akt1 kinase and on Akt2 kinase were 4.7 nM and 84.3 nM, respectively.
